According to patent US20250304582A1, “Bicyclic Ureas As Kinase Inhibitors” (Incyte Corporation, priority 2024, published 2025):

What was measured:
[1] = biological target: T1, pseudo-kinase domain (JH2, amino-acids 536-812) of human V617F mutant JAK2 (Homo sapiens, UniProt O60674, F794H/V617F/W659A/W777A); experiment: JAK2 LanthaScreen JH2-V617F Binding Assay; settings: 50 nM Fluorescent JAK2-JH2 Tracer, 1 hour at 25° C.; read-out: JH2 BIND V617F (Ex. C)
T1 construct: JH2, amino-acids 536-812 with 3 surface mutations W659A, W777A, F794H; His (C); purchased BPS Bioscience 79498; host or cells: baculovirus expression system
T1 sequence (O60674 536-812 V617F/W659A/W777A/F794H): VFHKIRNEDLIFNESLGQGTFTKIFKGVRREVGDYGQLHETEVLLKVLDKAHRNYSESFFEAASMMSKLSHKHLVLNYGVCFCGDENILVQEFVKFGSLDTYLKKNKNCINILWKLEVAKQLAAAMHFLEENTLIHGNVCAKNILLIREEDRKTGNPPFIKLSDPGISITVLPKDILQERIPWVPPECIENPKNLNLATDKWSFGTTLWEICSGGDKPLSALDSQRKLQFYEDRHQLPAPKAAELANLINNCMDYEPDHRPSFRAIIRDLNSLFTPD
Protocol: Example C. JAK2 LanthaScreen JH2-V617F Binding Assay
(§1) JAK2 JH2-V617F binding assay utilizes pseudo-kinase domain (JH2, amino-acids 536-812 with 3 surface mutations W659A, W777A, F794H) of human V617F mutant JAK2 expressed as C-terminal His-Avi-tagged, biotinylated protein in a baculovirus expression system (BPS Bioscience, Catalog #79498). The assay was conducted in black 384-well polystyrene plates in a final reaction volume of 20 μL. JAK2 JH2-V617F (0.26 nM) was incubated with compounds (100 nL serially diluted in DMSO) in the presence of 50 nM Fluorescent JAK2-JH2 Tracer (MedChem Express Catalog #HY-102055) and 0.25 nM Streptavidin-Tb cryptate (Cisbio Part #610SATLB) in assay buffer (50 mM Tris, pH=7.5, 10 mM MgCl2, 0.01% Brij-35, 0.1% BSA, 1 mM EGTA, 5% Glycerol and 5 mM DTT). Non-specific binding was accessed in the presence of 2 mM ATP. After incubation for 1 hour at 25° C., LanthaScreen signals were read on a PHERAstar FS plate reader (BMG LABTECH). Data was analyzed with IDBS Xlfit and GraphPad Prism 5.0 software using a four parameter dose response curve to determine IC50 for each compound.

[2] = biological target: T2, catalytic domain (JH1, amino acids 826-1132) of human JAK2 (Homo sapiens, UniProt O60674); experiment: JAK2 LanthaScreen JH1 Binding Assay; settings: 50 nM fluorescent JAK2-JH1 tracer, 2 hours at 25° C.; read-out: JH1 BIND (EX. A)
T2 construct: catalytic domain (JH1, amino acids 826-1132) of human JAK2; FLAG (N); purchased Carna Biosciences 08-445-20N; host or cells: baculovirus expression system
T2 sequence (O60674 826-1132): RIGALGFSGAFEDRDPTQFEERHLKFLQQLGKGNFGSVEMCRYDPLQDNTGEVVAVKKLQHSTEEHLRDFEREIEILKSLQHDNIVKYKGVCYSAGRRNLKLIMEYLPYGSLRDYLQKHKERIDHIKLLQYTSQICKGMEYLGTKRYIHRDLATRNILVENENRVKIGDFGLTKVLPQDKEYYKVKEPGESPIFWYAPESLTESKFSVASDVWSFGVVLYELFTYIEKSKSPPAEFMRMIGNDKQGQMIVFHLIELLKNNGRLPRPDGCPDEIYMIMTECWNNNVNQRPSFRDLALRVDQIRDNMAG
Protocol: Example A. JAK2 LanthaScreen JH1 Binding Assay
JAK2 JH1 binding assay utilizes catalytic domain (JH1, amino acids 826-1132) of human JAK2 expressed as N-terminal FLAG-tagged, biotinylated protein in a baculovirus expression system (Carna Biosciences, Product #08-445-20N). The assay was conducted in black 384-well polystyrene plates in a final reaction volume of 20 μL. JAK2 JH1 (1.5 nM) was incubated with compounds (100 nL serially diluted in DMSO) in the presence of 50 nM fluorescent JAK2-JH1 tracer and 0.5 nM Streptavidin-Tb cryptate (Cisbio Part #610SATLB) in assay buffer (50 mM Tris, pH=7.5, 10 mM MgCl2, 0.01% Brij-35, 0.1% BSA, 1 mM EGTA, 5% Glycerol and 5 mM DTT). Non-specific binding was accessed in the presence of 2 mM ATP. After incubation for 2 hours at 25° C., LanthaScreen signals were read on a PHERAstar FS plate reader (BMG LABTECH). Data was analyzed with IDBS Xlfit and GraphPad Prism 5.0 software using a four parameter dose response curve to determine IC50 for each compound.

[3] = biological target: T3, catalytic domain (JH1, amino acids 808-1132) of human JAK2 (Homo sapiens, UniProt O60674); experiment: JAK2 HTRF Enzyme Activity Assay; format: biochemical; settings: ATP (30 μM or 1 mM; not stated which for the table), 60 minutes at 25° C.; read-out: JAK2 HTRF (Ex. D)
T3 construct: catalytic domain (JH1, amino acids 808-1132) of human JAK2; His (N); purchased BPS Bioscience 40450; host or cells: baculovirus expression system
T3 sequence (O60674 808-1132): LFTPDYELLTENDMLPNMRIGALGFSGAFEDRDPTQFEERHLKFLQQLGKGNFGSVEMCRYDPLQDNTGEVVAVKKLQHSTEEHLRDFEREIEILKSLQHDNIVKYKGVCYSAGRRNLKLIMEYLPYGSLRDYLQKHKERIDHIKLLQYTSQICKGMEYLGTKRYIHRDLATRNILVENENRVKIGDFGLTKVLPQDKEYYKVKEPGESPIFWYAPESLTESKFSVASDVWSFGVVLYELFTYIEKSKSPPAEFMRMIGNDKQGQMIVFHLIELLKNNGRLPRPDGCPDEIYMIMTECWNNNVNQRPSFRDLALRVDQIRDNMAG
Protocol: Example D. JAK2 HTRF Enzyme Activity Assay
JAK2 enzyme activity assays utilize catalytic domain (JH1, amino acids 808-1132) of human JAK2 expressed as N-terminal His-tagged protein in a baculovirus expression system (BPS Bioscience, Catalog #40450). The assays was conducted in black 384-well polystyrene plates in a final reaction volume of 20 μL. JAK2 (0.015 nM) was incubated with compounds (100 nL serially diluted in DMSO) in the presence of ATP (30 μM or 1 mM) and 500 nM Biotin-labeled EQEDEPEGDYFEWLE (SEQ ID NO.: 1) peptide (BioSource International, custom synthesis) in assay buffer (50 mM Tris, pH=7.5, 10 mM MgCl2, 0.01% Brij-35, 0.1% BSA, 1 mM EGTA, 5% Glycerol and 5 mM DTT) for 60 minutes at 25° C. The reactions were stopped by the addition of 10 μL of detection buffer (50 mM Tris, pH 7.8, 0.5 mg/mL BSA, 150 mM NaCl), supplemented with EDTA, LANCE Eu-W1024 anti-phosphotyrosine (PY20), (PerkinElmer, Catalog #AD0067) and Streptavidin SureLight APC (PerkinElmer Catalog #CR130-100), for a final concentration of 15 mM, 1.5 nM and 75 nM, respectively. HTRF signals were read after 30 minutes incubation at room temperature on a PHERAstar FS plate reader (BMG LABTECH). Data was analyzed with TDBS Xlfit and GraphPad Prism 5.0 software using a four parameter dose response curve to determine IC50 for each compound.

[4] = biological target: T4, pseudo-kinase domain (JH2, amino-acids 536-812) of human Wild Type JAK2 (Homo sapiens, UniProt O60674, F794H/W659A/W777A); experiment: JAK2 LanthaScreen JH2-WT Binding Assay; settings: 50 nM Fluorescent JAK2-JH2 Tracer, 1 hour at 25° C.; read-out: JH2 BIND WT (EX. B)
T4 construct: JH2, amino-acids 536-812 with 3 surface mutations W659A, W777A, F794H; His (C); purchased BPS Bioscience 79463; host or cells: baculovirus expression system
T4 sequence (O60674 536-812 W659A/W777A/F794H): as the sequence (O60674 536-812 V617F/W659A/W777A/F794H) above, with F82V counted along it
Protocol: Example B. JAK2 LanthaScreen JH2-WT Binding Assay
as §1, with “JH2-WT” for “JH2-V617F”, “Wild Type” for “V617F mutant”, “#79463).” for “#79498).”, “JH2-WT (0.145” for “JH2-V617F (0.26”

Row | SMILES | IC50 [1] [nM] | IC50 [2] [nM] | IC50 [3] [nM] | IC50 [4] [nM]
1 | [2H]C([2H])([2H])n1c(=O)n([C@@H]2CC[C@@H](NC(=O)OC)C2)c2cc(Nc3cc(S(C)(=N)=O)c4cccc(C(F)(F)F)c4n3)ncc21 (stereo partly drawn) [Example 7, methyl ((1R,3R)-3-(3-(methyl-d3)-6-((4-(S-methylsulfonimidoyl)-8-(trifluoromethyl)quinolin-2-yl)amino)-2-oxo-2,3-dihydro-1H-imidazo[4,5-c]pyridin-1-yl)cyclopentyl)carbamate] | 10 to 100 | > 1000 | > 1000 | ≤ 10
2 | [2H]C([2H])([2H])n1c(=O)n([C@@H]2CC[C@@H](NC(=O)OC)C2)c2cc(Nc3cc(C(C)O)c4cccc(C(F)(F)F)c4n3)ncc21 (stereo partly drawn) [Example 2, Methyl ((1R,3R)-3-(6-((4-(1-hydroxyethyl)-8-(trifluoromethyl)quinolin-2-yl)amino)-3-(methyl-d3)-2-oxo-2,3-dihydro-1H-imidazo[4,5-c]pyridin-1-yl)cyclopentyl)carbamate] | ≤ 10 | > 1000 | > 1000 | ≤ 10
3 | [2H]C([2H])([2H])n1c(=O)n([C@@H]2CC[C@@H](NC(=O)OC)C2)c2cc(Nc3cc([S+](C)[O-])c4cccc(C(F)(F)F)c4n3)ncc21 (stereo partly drawn) [Example 5, Methyl ((1R,3R)-3-(3-(methyl-d3)-6-((4-(methylsulfinyl)-8-(trifluoromethyl)quinolin-2-yl)amino)-2-oxo-2,3-dihydro-1H-imidazo[4,5-c]pyridin-1-yl)cyclopentyl)carbamate] | ≤ 10 | > 1000 | > 1000 | ≤ 10
4 | COC(=O)N[C@@H]1CC[C@@H](n2c(=O)n(C)c3cnc(Nc4ccc5cccc(C#N)c5n4)cc32)C1 [Example 43, Methyl ((1R,3R)-3-(6-((8-cyanoquinolin-2-yl)amino)-3-methyl-2-oxo-2,3-dihydro-1H-imidazo[4,5-c]pyridin-1-yl)cyclopentyl)carbamate] | ≤ 10 | > 1000 | > 1000 | ≤ 10
5 | [2H]C([2H])([2H])n1c(=O)n([C@@H]2CC[C@@H](NC(=O)OC)C2)c2cc(Nc3cc(NC(=O)COC)c4cccc(C(F)(F)F)c4n3)ncc21 [Example 22, Methyl ((1R,3R)-3-(6-((4-(2-methoxyacetamido)-8-(trifluoromethyl)quinolin-2-yl)amino)-3-(methyl-d3)-2-oxo-2,3-dihydro-1H-imidazo[4,5-c]pyridin-1-yl)cyclopentyl)carbamate] | ≤ 10 | > 1000 | > 1000 | ≤ 10
6 | COC(=O)N[C@@H]1CC[C@@H](n2c(=O)n(C)c3cnc(Nc4ccc5ncc(C#N)n5n4)cc32)C1 [Example 42, Methyl ((1R,3R)-3-(6-((3-cyanoimidazo[1,2-b]pyridazin-6-yl)amino)-3-methyl-2-oxo-2,3-dihydro-1H-imidazo[4,5-c]pyridin-1-yl)cyclopentyl)carbamate] | ≤ 10 | > 1000 | > 1000 | ≤ 10
7 | COC(=O)N[C@@H]1CC[C@@H](n2c(=O)n(C)c3cnc(Nc4ccc5cccc(C(F)(F)F)c5n4)cc32)C1 [Example 41, Methyl ((1R,3R)-3-(3-methyl-2-oxo-6-((8-(trifluoromethyl)quinolin-2-yl)amino)-2,3-dihydro-1H-imidazo[4,5-c]pyridin-1-yl)cyclopentyl)carbamate] | ≤ 10 | > 1000 | > 1000 | ≤ 10
8 | [2H]C([2H])([2H])n1c(=O)n([C@@H]2CC[C@@H](NC(=O)OC)C2)c2cc(Nc3ccc4c(C(C)(C)O)ccc(C(F)(F)F)c4n3)ncc21 [Example 47, Methyl ((1R,3R)-3-(6-((5-(2-hydroxypropan-2-yl)-8-(trifluoromethyl)quinolin-2-yl)amino)-3-(methyl-d3)-2-oxo-2,3-dihydro-1H-imidazo[4,5-c]pyridin-1-yl)cyclopentyl)carbamate] | ≤ 10 | > 1000 | > 1000 | ≤ 10
9 | COC(=O)N[C@@H]1CC[C@@H](n2c(=O)n(C)c3cnc(Nc4cc(Cl)c5cccc(C(F)(F)F)c5n4)cc32)C1 [Example 21, Methyl ((1R,3R)-3-(6-((4-chloro-8-(trifluoromethyl)quinolin-2-yl)amino)-3-methyl-2-oxo-2,3-dihydro-1H-imidazo[4,5-c]pyridin-1-yl)cyclopentyl)carbamate] | ≤ 10 | > 1000 | > 1000 | ≤ 10
10 | [2H]C([2H])([2H])n1c(=O)n([C@@H]2CC[C@@H](NC(=O)OC)C2)c2cc(Nc3ccc4cncc(C)c4n3)ncc21 [Example 28, Methyl ((1R,3R)-3-(3-(methyl-d3)-6-((8-methyl-1,6-naphthyridin-2-yl)amino)-2-oxo-2,3-dihydro-1H-imidazo[4,5-c]pyridin-1-yl)cyclopentyl)carbamate] | ≤ 10 | > 1000 | > 1000 | ≤ 10
